Where “and” joins values, the source holds several entries; their conditions need not be identical. Equal entries are not always repeated. Inconclusive results and toxic doses are left out. Cut-off read from the data, not from the text of the source: active = T/C of 150% or more; inactive = T/C below 125%.
Tested on: L1210 leukemia ip in BDF1 mice, survival T/C
Assay: NCI In Vivo Anticancer Drug Screen. Data for tumor model L1210 Leukemia (intraperitoneal) in B6D2F1 (BDF1) mice
Settings: endpoint: mean survival time, higher = longer survival
How it was run: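 Each compound was tested against a transplantable tumor grown in mice. The endpoint was survival, with treated animals benchmarked against vehicle controls as a simple ratio.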

[1] = dose: 100.0 mg/kg/injection, schedule: Q01DX009 (ip), vehicle: Klucel (hydroxypropylcellulose) (HPC)
[2] = dose: 100.0 mg/kg/injection, schedule: Q04DX003 (ip), vehicle: Klucel (hydroxypropylcellulose) (HPC)
[3] = dose: 200.0 mg/kg/injection, schedule: Q01DX009 (ip), vehicle: Klucel (hydroxypropylcellulose) (HPC)
[4] = dose: 200.0 mg/kg/injection, schedule: Q04DX003 (ip), vehicle: Klucel (hydroxypropylcellulose) (HPC)
[5] = dose: 400.0 mg/kg/injection, schedule: Q01DX009 (ip), vehicle: Klucel (hydroxypropylcellulose) (HPC)
[6] = dose: 400.0 mg/kg/injection, schedule: Q04DX003 (ip), vehicle: Klucel (hydroxypropylcellulose) (HPC)
[7] = dose: 75.0 mg/kg/injection, schedule: Q01DX001 (ip), vehicle: saline
[8] = dose: 150.0 mg/kg/injection, schedule: Q01DX001 (ip), vehicle: saline
[9] = dose: 300.0 mg/kg/injection, schedule: Q01DX001 (ip), vehicle: saline
[10] = dose: 25.0 mg/kg/injection, schedule: Q01DX009 (ip), vehicle: saline with Tween-80
[11] = dose: 50.0 mg/kg/injection, schedule: Q01DX009 (ip), vehicle: saline with Tween-80
[12] = dose: 100.0 mg/kg/injection, schedule: Q01DX009 (ip), vehicle: saline with Tween-80
[13] = dose: 100.0 mg/kg/injection, schedule: Q04DX003 (ip), vehicle: saline with Tween-80
[14] = dose: 50.0 mg/kg/injection, schedule: Q01DX009 (ip), vehicle: saline
[15] = dose: 100.0 mg/kg/injection, schedule: Q01DX009 (ip), vehicle: saline
[16] = dose: 200.0 mg/kg/injection, schedule: Q01DX009 (ip), vehicle: saline
[17] = dose: 400.0 mg/kg/injection, schedule: Q01DX009 (ip), vehicle: saline
[18] = dose: 100.0 mg/kg/injection, schedule: Q01DX001 (ip), vehicle: carboxymethylcellulose (CMC)
[19] = dose: 200.0 mg/kg/injection, schedule: Q01DX001 (ip), vehicle: carboxymethylcellulose (CMC)
[20] = dose: 400.0 mg/kg/injection, schedule: Q01DX001 (ip), vehicle: carboxymethylcellulose (CMC)

Measured: T/C

Cc1cc(NC(=O)Nc2ccc(Cl)cc2)no1
inactive: dose: 100.0 mg/kg/injection, schedule: Q04DX003 (ip), vehicle: saline sonified 95 % of control | dose: 200.0 mg/kg/injection, schedule: Q04DX003 (ip), vehicle: saline sonified 87 % of control | dose: 400.0 mg/kg/injection, schedule: Q04DX003 (ip), vehicle: saline sonified 87 % of control

CCOC(=O)Nc1ccccc1
inactive: [1] 97 % of control | [2] 93 % of control | [3] 103 % of control | [4] 93 % of control | [5] 103 % of control | [6] 88 % of control

COC(=O)c1ccc([N+](=O)[O-])c(OC)c1
inactive: [7] 91 % of control | dose: 75.0 mg/kg/injection, schedule: Q04DX003 (ip), vehicle: saline 94 % of control | [8] 91 % of control | dose: 150.0 mg/kg/injection, schedule: Q04DX003 (ip), vehicle: saline 108 % of control | [9] 93 % of control | dose: 300.0 mg/kg/injection, schedule: Q04DX003 (ip), vehicle: saline 101 % of control

c1ccc(-c2nc(-c3ccccc3)nc(-c3ccccc3)n2)cc1
inactive: [2] 98 % of control | [4] 94 % of control | [6] 94 % of control

O=[N+]([O-])/C(N=Nc1ccc2ccccc2c1)=N\Nc1ccc2ccccc2c1
inactive: dose: 10.0 mg/kg/injection, schedule: Q01DX001 (ip), vehicle: acetone 98 % of control | dose: 20.0 mg/kg/injection, schedule: Q01DX001 (ip), vehicle: acetone 94 % of control | dose: 40.0 mg/kg/injection, schedule: Q01DX001 (ip), vehicle: acetone 88 % of control | dose: 75.0 mg/kg/injection, schedule: Q01DX001 (ip), vehicle: acetone 89 % of control | dose: 300.0 mg/kg/injection, schedule: Q01DX001 (ip), vehicle: acetone 89 % of control

NNC(=O)OC12CC3CC(CC(C3)C1)C2
inactive: [10] 90 % of control | [11] 88 % of control | [12] 98 % of control | [13] 94 % of control

O=S(=O)(/C=C\c1ccccc1)c1ccccc1
inactive: [14] 102 % of control | dose: 100.0 mg/kg/injection, schedule: Q01DX001 (ip), vehicle: acetone 97 % of control | [15] 97 % of control | dose: 100.0 mg/kg/injection, schedule: Q04DX003 (ip), vehicle: acetone 105 % of control | dose: 200.0 mg/kg/injection, schedule: Q01DX001 (ip), vehicle: acetone 106 % of control | [16] 91 % of control | dose: 200.0 mg/kg/injection, schedule: Q04DX003 (ip), vehicle: acetone 94 % of control | dose: 400.0 mg/kg/injection, schedule: Q01DX001 (ip), vehicle: acetone 97 % of control

CCOc1ccc(/C=N/NC(=O)c2ccc(N=NN(C)C)cc2)cc1
inactive: dose: 75.0 mg/kg/injection, schedule: Q04DX003 (ip), vehicle: Klucel (hydroxypropylcellulose) (HPC) 94 % of control | dose: 150.0 mg/kg/injection, schedule: Q04DX003 (ip), vehicle: Klucel (hydroxypropylcellulose) (HPC) 90 % of control | dose: 300.0 mg/kg/injection, schedule: Q04DX003 (ip), vehicle: Klucel (hydroxypropylcellulose) (HPC) 87 % of control

CC(C)(c1cc(Br)c(O)c(Br)c1)c1cc(Br)c(O)c(Br)c1
inactive: [1] 93 % of control | [2] 100 % of control | [3] 94 % of control | [4] 92 % of control | [5] 91 % of control | [6] 103 % of control

CC(N)C(=O)Nc1ccc(C(=O)O)c(O)c1 (configuration not stated)
inactive: [15] 109 % of control | [16] 102 % of control | [17] 106 % of control

CC(=O)Nc1cc(C)cc(C)n1
inactive: dose: 87.5 mg/kg/injection, schedule: Q01DX009 (ip), vehicle: saline with Tween-80 113 % of control | dose: 175.0 mg/kg/injection, schedule: Q01DX009 (ip), vehicle: saline with Tween-80 102 % of control

O=S(=O)(CCCl)Cc1ccccc1
inactive: dose: 100.0 mg/kg/injection, schedule: Q04DX002 (ip), vehicle: saline with Tween-80 115 % of control | dose: 200.0 mg/kg/injection, schedule: Q04DX002 (ip), vehicle: saline with Tween-80 94 % of control

CCCC(CNC(=O)OCC)(CNC(=O)OCC)c1ccccc1
inactive: [18] 94 % of control | [19] 94 % of control | [20] 105 % of control

C[N+](C)(C)CCOC(=O)c1ccc(CBr)cc1
inactive: [10] 104 % of control | [11] 108 % of control | dose: 50.0 mg/kg/injection, schedule: Q04DX002 (ip), vehicle: saline 90 % of control | [12] 86 % of control | [15] 103 % of control | dose: 100.0 mg/kg/injection, schedule: Q04DX002 (ip), vehicle: saline 98 % of control

CC1CCCC(C)N1 (configuration not stated)
inactive: [14] 94 % of control | [15] 96 % of control and 100 % of control | dose: 100.0 mg/kg/injection, schedule: Q04DX003 (ip), vehicle: saline 110 % of control and 102 % of control | [16] 94 % of control and 106 % of control | dose: 200.0 mg/kg/injection, schedule: Q04DX003 (ip), vehicle: saline 102 % of control and 94 % of control | [17] 95 % of control | dose: 400.0 mg/kg/injection, schedule: Q04DX003 (ip), vehicle: saline 87 % of control

O=S(=O)(O)CNc1ccccc1
inactive: [15] 93 % of control | [16] 93 % of control | [17] 95 % of control

CCCCCC[Si](C)(C)C
inactive: [18] 89 % of control | [19] 91 % of control | [20] 89 % of control

CCCCCCCCCC(CC)(CCCCCCC)CCCCCCCC (configuration not stated)
inactive: dose: 100.0 mg/kg/injection, schedule: Q01DX001 (ip), vehicle: saline with Tween-80 103 % of control | dose: 200.0 mg/kg/injection, schedule: Q01DX001 (ip), vehicle: saline with Tween-80 99 % of control | dose: 400.0 mg/kg/injection, schedule: Q01DX001 (ip), vehicle: saline with Tween-80 103 % of control

Oc1c(Cl)cc(Cl)cc1C=Nc1ccc(Br)cn1
inactive: dose: 100.0 mg/kg/injection, schedule: Q01DX001 (ip), vehicle: other 95 % of control | dose: 200.0 mg/kg/injection, schedule: Q01DX001 (ip), vehicle: other 101 % of control | dose: 400.0 mg/kg/injection, schedule: Q01DX001 (ip), vehicle: other 95 % of control

O=C(O)C1C(C(=O)O)C23CC2(C(=O)O)C2(C(=O)O)CCC3=C3CCCC312 (configuration not stated)
inactive: dose: 6.25 mg/kg/injection, schedule: Q01DX009 (ip), vehicle: saline 109 % of control | dose: 6.25 mg/kg/injection, schedule: Q04DX003 (ip), vehicle: saline 104 % of control | dose: 12.5 mg/kg/injection, schedule: Q01DX001 (ip), vehicle: saline 114 % of control | dose: 12.5 mg/kg/injection, schedule: Q01DX009 (ip), vehicle: saline 111 % of control | dose: 12.5 mg/kg/injection, schedule: Q04DX003 (ip), vehicle: saline 104 % of control | dose: 25.0 mg/kg/injection, schedule: Q01DX001 (ip), vehicle: saline 98 % of control | dose: 25.0 mg/kg/injection, schedule: Q04DX003 (ip), vehicle: saline 103 % of control

O=[N+]([O-])c1ccc(O)c(/C=N/Nc2c3ccccc3nc3ccccc23)c1
inactive: dose: 100.0 mg/kg/injection, schedule: Q01DX001 (ip), vehicle: saline 103 % of control | dose: 200.0 mg/kg/injection, schedule: Q01DX001 (ip), vehicle: saline 95 % of control | dose: 400.0 mg/kg/injection, schedule: Q01DX001 (ip), vehicle: saline 92 % of control

NC(=O)SCC(=O)NNc1ccccc1
inactive: dose: 75.0 mg/kg/injection, schedule: Q01DX001 (ip), vehicle: other 90 % of control | dose: 150.0 mg/kg/injection, schedule: Q01DX001 (ip), vehicle: other 98 % of control | dose: 300.0 mg/kg/injection, schedule: Q01DX001 (ip), vehicle: other 100 % of control

CC1=CC(=O)C2(C)C(C)=C(C)C12C (configuration not stated)
inactive: dose: 50.0 mg/kg/injection, schedule: Q04DX003 (ip), vehicle: saline with Tween-80 99 % of control | [7] 105 % of control | [13] 94 % of control | [8] 111 % of control | [9] 97 % of control

— PubChem BioAssay AID248 (DTP/NCI, 2004)
